Assay results as given in ChEMBL document CHEMBL1833908, “Hydrazidomycins, cytotoxic alkylhydrazides from Streptomycesatratus” (Bioorg Med Chem Lett, 2011).

How the values were obtained:
Assay type in all cases: functional, cell-based
SAOS-2 = experiment: Cytotoxicity against human Saos2 cells by propidium iodide staining
TE-671 = experiment: Cytotoxicity against human TE671 cells by propidium iodide staining
[1] = Cytotoxicity against human UXF 1138L cells by propidium iodide staining
[2] = Cytotoxicity against human CXF 269L cells by propidium iodide staining
[3] = Cytotoxicity against human BXF 1218L cells by propidium iodide staining
[4] = Cytotoxicity against human BXF 1352L cells by propidium iodide staining
[5] = Cytotoxicity against human DIFI cells by propidium iodide staining
HCT-116 = experiment: Cytotoxicity against human HCT116 cells by propidium iodide staining
HT-29 = experiment: Cytotoxicity against human HT-29 cells by propidium iodide staining
RKO = experiment: Cytotoxicity against human RKO cells by propidium iodide staining
MKN-45 = experiment: Cytotoxicity against human MKN45 cells by propidium iodide staining
[6] = Cytotoxicity against human GXF251L cells by propidium iodide staining; details: GXF 251L
CAL-27 = experiment: Cytotoxicity against human CAL27 cells by propidium iodide staining
[7] = Cytotoxicity against human LIXF 575L cells by propidium iodide staining
[8] = Cytotoxicity against human LXFA 289L cells by propidium iodide staining
[9] = Cytotoxicity against human LXFA 526L cells by propidium iodide staining
[10] = Cytotoxicity against human LXFA 629L cells by propidium iodide staining
[11] = Cytotoxicity against human LXFL 1121L cells by propidium iodide staining
[12] = Cytotoxicity against human LXFL 529L cells by propidium iodide staining
NCI-H460 = experiment: Cytotoxicity against human NCI-H460 cells by propidium iodide staining
[13] = Cytotoxicity against human MAXF 401NL cells by propidium iodide staining
MCF7 = experiment: Cytotoxicity against human MCF7 cells by propidium iodide staining
MDA-MB-231 = experiment: Cytotoxicity against human MDA-MB-231 cells by propidium iodide staining
[14] = Cytotoxicity against human MEXF 1341L cells by propidium iodide staining
[15] = Cytotoxicity against human MEXF 276L cells by propidium iodide staining; details: MEXF276L
[16] = Cytotoxicity against human MEXF 462NL cells by propidium iodide staining
[17] = Cytotoxicity against human OVXF 899L cells by propidium iodide staining
[18] = Cytotoxicity against human NIH:OVCAR3 cells by propidium iodide staining; details: OVCAR-3
[19] = Cytotoxicity against human PAXF 1657L cells by propidium iodide staining
[20] = Cytotoxicity against human PAXF 546L cells by propidium iodide staining
PANC-1 = experiment: Cytotoxicity against human PANC1 cells by propidium iodide staining
CWR22R = experiment: Cytotoxicity against human 22Rv1 cells by propidium iodide staining
DU-145 = experiment: Cytotoxicity against human DU145 cells by propidium iodide staining
LNCaP = experiment: Cytotoxicity against human LNCAP cells by propidium iodide staining
[21] = Cytotoxicity against human PC3M cells by propidium iodide staining; details: PC-3M
[22] = Cytotoxicity against human PXF 1118L cells by propidium iodide staining
[23] = Cytotoxicity against human PXF 1752L cells by propidium iodide staining
[24] = Cytotoxicity against human PXF 698L cells by propidium iodide staining
[25] = Cytotoxicity against human RXF 1781L cells by propidium iodide staining
[26] = Cytotoxicity against human RXF 393NL cells by propidium iodide staining
[27] = Cytotoxicity against human RXF 486L cells by propidium iodide staining
T-24 = experiment: Cytotoxicity against human T24 cells by propidium iodide staining

SMILES: CCCCCCCCCCCC/C=C\N(NC(=O)COC)C(=O)CCCCCCCCC [HYDRAZIDOMYCIN A]
- IC50 (SAOS-2): 1.82 µM
- IC50 (TE-671): 0.898 µM
- IC50 [1]: 0.893 µM
- IC50 [2]: 0.222 µM
- IC50 [3]: 2.43 µM
- IC50 [4]: 2.3 µM
- IC50 [5]: 0.782 µM
- IC50 (HCT-116): 0.758 µM
- IC50 (HT-29): 0.464 µM
- IC50 (RKO): 0.598 µM
- IC50 (MKN-45): 0.676 µM
- IC50 [6]: 0.144 µM
- IC50 (CAL-27): 0.716 µM
- IC50 [7]: 0.349 µM
- IC50 [8]: 1.1 µM
- IC50 [9]: 1.65 µM
- IC50 [10]: 0.247 µM
- IC50 [11]: 2.31 µM
- IC50 [12]: 2.12 µM
- IC50 (NCI-H460): 2.31 µM
- IC50 [13]: 0.471 µM
- IC50 (MCF7): 0.782 µM
- IC50 (MDA-MB-231): 0.286 µM
- IC50 [14]: 0.936 µM
- IC50 [15]: 1.59 µM
- IC50 [16]: 0.765 µM
- IC50 [17]: 1.34 µM
- IC50 [18]: 1.1 µM
- IC50 [19]: 1.91 µM
- IC50 [20]: 0.66 µM
- IC50 (PANC-1): 0.933 µM
- IC50 (CWR22R): 0.882 µM
- IC50 (DU-145): 0.539 µM
- IC50 (LNCaP): 0.957 µM
- IC50 [21]: 0.105 µM
- IC50 [22]: 2.4 µM
- IC50 [23]: 1.19 µM
- IC50 [24]: 0.982 µM
- IC50 [25]: 0.982 µM
- IC50 [26]: 1.11 µM
- IC50 [27]: 1.62 µM

SMILES: CCCCCCC/C=C\CCCCC/C=C\N(NC(=O)COC)C(=O)CCCCCCCCC [HYDRAZIDOMYCIN B]
- IC50 (SAOS-2): 18 µM
- IC50 (TE-671): 18.2 µM
- IC50 [1]: 18.2 µM
- IC50 [2]: 5.94 µM
- IC50 (T-24): 9.19 µM
- IC50 [3]: 19.3 µM
- IC50 [4]: 15.1 µM
- IC50 [5]: 10.2 µM
- IC50 (HCT-116): 19.4 µM
- IC50 (HT-29): 6.54 µM
- IC50 (RKO): 13.8 µM
- IC50 (MKN-45): 11.6 µM
- IC50 [6]: 1.54 µM
- IC50 (CAL-27): 12.7 µM
- IC50 [7]: 7.39 µM
- IC50 [8]: 12.6 µM
- IC50 [9]: 7.07 µM
- IC50 [10]: 1.41 µM
- IC50 [11]: 17.4 µM
- IC50 [12]: 17.3 µM
- IC50 (NCI-H460): 17.2 µM
- IC50 [13]: 0.876 µM
- IC50 (MCF7): 11 µM
- IC50 (MDA-MB-231): 5.53 µM
- IC50 [14]: 14.9 µM
- IC50 [15]: 18.3 µM
- IC50 [16]: 20.4 µM
- IC50 [17]: 19.1 µM
- IC50 [18]: 18.5 µM
- IC50 [19]: 20.4 µM
- IC50 [20]: 10.8 µM
- IC50 (PANC-1): 10 µM
- IC50 (CWR22R): 15.6 µM
- IC50 (DU-145): 7.22 µM
- IC50 (LNCaP): 14.1 µM
- IC50 [21]: 1.73 µM
- IC50 [22]: 30 µM
- IC50 [23]: 12.7 µM
- IC50 [24]: 14.3 µM
- IC50 [25]: 10.2 µM
- IC50 [26]: 11 µM
- IC50 [27]: 21.2 µM
